{"source": "patent US20230382949A1", "about": "(HEPTARES THERAPEUTICS LIMITED, priority 2020, published 2023)", "key": {"human Apelin receptor [1]": {"molecular_target": "T1, human Apelin receptor (Homo sapiens, UniProt P35414)", "T1 sequence (P35414 1-380)": "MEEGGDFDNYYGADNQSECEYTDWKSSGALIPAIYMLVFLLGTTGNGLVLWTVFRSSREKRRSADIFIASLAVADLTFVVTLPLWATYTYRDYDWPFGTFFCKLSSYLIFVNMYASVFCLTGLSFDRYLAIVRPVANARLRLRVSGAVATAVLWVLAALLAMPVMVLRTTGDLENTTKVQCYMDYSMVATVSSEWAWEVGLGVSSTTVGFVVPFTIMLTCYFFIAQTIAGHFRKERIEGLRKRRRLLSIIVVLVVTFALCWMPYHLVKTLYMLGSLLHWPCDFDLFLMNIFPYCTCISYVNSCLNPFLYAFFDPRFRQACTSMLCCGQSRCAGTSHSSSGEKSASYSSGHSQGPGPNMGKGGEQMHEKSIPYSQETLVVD", "test": "cAMP accumulation assay (HTRF), functional agonism of human Apelin receptors", "type": "cell-based", "conditions": "CHO cells stably expressing the human Apelin receptor, 3 uM forskolin; for Emax: Human Apelin agonist cAMP assay; for pEC50: pEC50, Human Apelin agonist cAMP assay", "from_the_text": "cAMP functional assay. cAMP production was quantified using the Homogeneous Time-Resolved Fluorescence (HTRF) cAMP dynamic-2 assay (Cisbio, France)."}, "human Apelin receptor [2]": {"molecular_target": "T2, human Apelin receptor (Homo sapiens, UniProt P35414)", "T2 construct": "host or cells: CHO-K1 cells", "test": "β-arrestin accumulation assay, functional agonism of human Apelin receptors", "type": "cell-based", "experimental": "β-arrestin assay. […] After 16 h incubation at 37° C. media was removed and cells were incubated at 37° C. for 90 min in serum free media containing increasing concentrations of test agonist. The assay reaction was stopped by adding detection reagent (DiscoveRx) and incubation for 60 min in the dark. Levels of receptor activation were then measured on a PheraStar fluorescence plate reader (BMG LabTech) and EC50 values were determined using Graphpad Prism.", "T2 sequence (P32121 whole entry partner, one chain of several)": "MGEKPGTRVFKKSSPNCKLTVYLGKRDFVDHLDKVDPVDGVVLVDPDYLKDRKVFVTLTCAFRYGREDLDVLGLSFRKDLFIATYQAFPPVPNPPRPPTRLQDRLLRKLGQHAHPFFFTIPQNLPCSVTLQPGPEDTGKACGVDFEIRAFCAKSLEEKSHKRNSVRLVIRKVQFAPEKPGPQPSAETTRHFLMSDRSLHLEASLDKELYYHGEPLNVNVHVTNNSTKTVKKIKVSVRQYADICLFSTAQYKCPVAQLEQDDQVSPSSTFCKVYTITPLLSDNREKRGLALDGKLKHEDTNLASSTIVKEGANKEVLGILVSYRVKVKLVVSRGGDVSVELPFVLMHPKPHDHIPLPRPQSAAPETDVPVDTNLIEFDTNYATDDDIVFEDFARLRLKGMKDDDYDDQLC"}}, "note": "pEC50: −log10 of the molar value. Starred links: 1 amine or outer side, 2 acyl side, 3 side chain; linkers in the order of their positions; H or OH if unused. Non-standard residues stand in square brackets, D forms with d. Residues, ends and D or L forms follow the SMILES beside them. *: point of attachment. Ala(piperidin-4-yl) = O=C([C@H](CC1CCN([*:3])CC1)N[*:1])[*:2]; Malonyl(2,2-Me2,histaminyl) = CC(C)(C(=O)NCCc1cnc[nH]1)C(=O)*; dBip = N[C@H](Cc1ccc(-c2ccccc2)cc1)C(=O)O; Oic = O=C(O)[C@@H]1C[C@@H]2CCCC[C@@H]2N1; Phe(4-Br) = N[C@@H](Cc1ccc(Br)cc1)C(=O)O; X1 = CC(C)(C(=O)NCCc1ccccc1)C(=O)*; X3 = CC(C)(C(=O)NCCc1ccccn1)C(=O)*; hArg = N=C(N)NCCCC[C@H](N)C(=O)O; Aib = CC(C)(N)C(=O)O"}
{"molecule": "CC(C)C[C@H](NC(=O)[C@@H](CCCNC(=N)N)NC(=O)C1C2CC2CN1C(=O)[C@H](CCCCNC(=N)N)NC(=O)[C@H](CCC(N)=O)NC(=O)[C@@H](CCCNC(=N)N)NC(=O)C(C)(C)C(=O)NCCc1c[nH]cn1)C(=O)NC(C)(C)C(=O)N[C@@H](Cc1c[nH]cn1)C(=O)N[C@@H](CC1CCNCC1)C(=O)NCC(=O)N1[C@H](C(=O)N[C@@H](Cc2ccc(Br)cc2)C(=O)N2CCC[C@H]2C(=O)N[C@H](Cc2ccc(-c3ccccc3)cc2)C(=O)O)C[C@@H]2CCCC[C@@H]21", "note": "(single isomer, unassigned) [37 Isomer 1]", "values": [{"measurement": "Emax", "setting": "human Apelin receptor [1]; CHO", "value": 68.6, "unit": "%"}, {"measurement": "pEC50", "setting": "human Apelin receptor [1]", "value": 8.00}, {"measurement": "pEC50", "setting": "human Apelin receptor [2]", "value": "< 4.00"}]}
{"molecule": "CC(C)C[C@H](NC(=O)[C@@H](CCCNC(=N)N)NC(=O)C1C2CC2CN1C(=O)[C@H](CCCCNC(=N)N)NC(=O)[C@H](CCC(N)=O)NC(=O)[C@@H](CCCNC(=N)N)NC(=O)C(C)(C)C(=O)NCCc1c[nH]cn1)C(=O)NC(C)(C)C(=O)N[C@@H](Cc1c[nH]cn1)C(=O)N[C@@H](CC1CCNCC1)C(=O)NCC(=O)N1[C@H](C(=O)N[C@@H](Cc2ccc(Br)cc2)C(=O)N2CCC[C@H]2C(=O)N[C@H](Cc2ccc(-c3ccccc3)cc2)C(=O)O)C[C@@H]2CCCC[C@@H]21", "note": "(single isomer, unassigned) [37 Isomer 2]", "values": [{"measurement": "Emax", "setting": "human Apelin receptor [1]", "value": 68.9}, {"measurement": "pEC50", "setting": "human Apelin receptor [1]", "value": 8.30}, {"measurement": "Human Apelin agonist β-arrestin assay pEC50", "setting": "human Apelin receptor [2]; CHO-K1 cells overexpressing human Apelin receptor and β-arrestin, 90 min", "value": "<4"}]}
{"molecule": "CC(C)C[C@H](NC(=O)[C@@H](CCCNC(=N)N)NC(=O)[C@@H]1CCCN1C(=O)[C@H](CCCCNC(=N)N)NC(=O)[C@H](CCC(N)=O)NC(=O)[C@@H](CCCNC(=N)N)NC(=O)C(C)(C)C(=O)NCCc1cnc[nH]1)C(=O)N[C@H](C)C(=O)N[C@@H](Cc1c[nH]cn1)C(=O)N[C@@H](CC1CCNCC1)C(=O)NCC(=O)N1[C@H](C(=O)N[C@@H](Cc2ccc(Br)cc2)C(=O)N2CCC[C@H]2C(=O)N[C@H](Cc2ccc(-c3ccccc3)cc2)C(=O)O)C[C@@H]2CCCC[C@@H]21", "note": "[Example 1] ({Malonyl(2,2-Me2,histaminyl)}-[dR]Q[hArg]P[dR]L[dA]H[Ala(piperidin-4-yl)]G[Oic][Phe(4-Br)]P[dBip]-OH)", "values": [{"measurement": "Emax", "setting": "human Apelin receptor [1]; CHO", "value": 27.2, "unit": "%"}, {"measurement": "pEC50", "setting": "human Apelin receptor [1]", "value": 7.80}, {"measurement": "pEC50", "setting": "human Apelin receptor [2]", "value": "< 5.00"}]}
{"molecule": "CC(C)C[C@H](NC(=O)[C@@H](CCCNC(=N)N)NC(=O)[C@@H]1CCCN1C(=O)[C@H](CCCCNC(=N)N)NC(=O)[C@H](CCC(N)=O)NC(=O)[C@@H](CCCNC(=N)N)NC(=O)C(C)(C)C(=O)NCCc1cnc[nH]1)C(=O)NC(C)(C)C(=O)N[C@@H](Cc1c[nH]cn1)C(=O)N[C@@H](CC1CCNCC1)C(=O)NCC(=O)N1[C@H](C(=O)N[C@@H](Cc2ccc(Br)cc2)C(=O)N2CCC[C@H]2C(=O)N[C@H](Cc2ccc(-c3ccccc3)cc2)C(=O)O)C[C@@H]2CCCC[C@@H]21", "note": "[Example 2] ({Malonyl(2,2-Me2,histaminyl)}-[dR]Q[hArg]P[dR]L[Aib]H[Ala(piperidin-4-yl)]G[Oic][Phe(4-Br)]P[dBip]-OH)", "values": [{"measurement": "Emax", "setting": "human Apelin receptor [1]; CHO", "value": 50.8, "unit": "%"}, {"measurement": "pEC50", "setting": "human Apelin receptor [1]", "value": 7.70}, {"measurement": "pEC50", "setting": "human Apelin receptor [2]", "value": "< 5.00"}]}
{"molecule": "CC(C)C[C@H](NC(=O)[C@@H](CCCNC(=N)N)NC(=O)[C@@H]1CCCN1C(=O)[C@H](CCCCNC(=N)N)NC(=O)[C@H](CCC(N)=O)NC(=O)[C@@H](CCCNC(=N)N)NC(=O)C(C)(C)C(=O)NCCc1ccccc1)C(=O)NC(C)(C)C(=O)N[C@@H](Cc1c[nH]cn1)C(=O)N[C@@H](CC1CCNCC1)C(=O)NCC(=O)N1[C@H](C(=O)N[C@@H](Cc2ccc(Br)cc2)C(=O)N2CCC[C@H]2C(=O)N[C@H](Cc2ccc(-c3ccccc3)cc2)C(=O)O)C[C@@H]2CCCC[C@@H]21", "note": "[Example 5] (X1-[dR]Q[hArg]P[dR]L[Aib]H[Ala(piperidin-4-yl)]G[Oic][Phe(4-Br)]P[dBip]-OH)", "values": [{"measurement": "Emax", "setting": "human Apelin receptor [1]; CHO", "value": 47.2, "unit": "%"}, {"measurement": "pEC50", "setting": "human Apelin receptor [1]", "value": 7.80}, {"measurement": "pEC50", "setting": "human Apelin receptor [2]", "value": "< 5.00"}]}
{"molecule": "CC(C)C[C@H](NC(=O)[C@@H](CCCNC(=N)N)NC(=O)[C@@H]1CCCN1C(=O)[C@H](CCCCNC(=N)N)NC(=O)[C@H](CCC(N)=O)NC(=O)[C@@H](CCCNC(=N)N)NC(=O)C(C)(C)C(=O)NCCc1ccccn1)C(=O)NC(C)(C)C(=O)N[C@@H](Cc1c[nH]cn1)C(=O)N[C@@H](CC1CCNCC1)C(=O)NCC(=O)N1[C@H](C(=O)N[C@@H](Cc2ccc(Br)cc2)C(=O)N2CCC[C@H]2C(=O)N[C@H](Cc2ccc(-c3ccccc3)cc2)C(=O)O)C[C@@H]2CCCC[C@@H]21", "note": "[Example 6] (X3-[dR]Q[hArg]P[dR]L[Aib]H[Ala(piperidin-4-yl)]G[Oic][Phe(4-Br)]P[dBip]-OH)", "values": [{"measurement": "Emax", "setting": "human Apelin receptor [1]; CHO", "value": 53.9, "unit": "%"}, {"measurement": "pEC50", "setting": "human Apelin receptor [1]", "value": 7.70}, {"measurement": "pEC50", "setting": "human Apelin receptor [2]", "value": "< 5.00"}]}
